Laboratory results published in patent US11613552B2, “Pharmaceutical agents, compositions, and methods relating thereto” (Alltech, Inc., priority 2017, dated 2023).

Assays:
[1] = tested on: G6pc; assay: QRT-PCR of G6pc mRNA in livers of Lepr^db/db mice; format: in vivo, mouse; conditions: 25 μg selenium/kg ip daily, 52 days (FIG. 9)
Procedure: Male Lepr^db/db mice (C57BL/6J strain, purchased from The Jackson Laboratory) at 38-days of age were intraperitoneally injected daily with physiological saline ([…]) containing 0.2% DMSO, Compound #50, or Compound #43 (25 μg selenium equivalent of each compound per kilogram body weight, diluted in the sterile physiological saline) for 52 days. After the treatment, livers were collected and subjected RNA analysis.
Total RNA from saline- or selenium compound-treated Lepr^db/db mice was isolated using a Qiagen RNAeasy RNA isolation kit according to the Manufacturer's protocol. Total RNA from cultured cells was isolated using Trizol (Invitrogen) according to the manufacturer's protocol, and then incubated with DNase I to remove any potential contaminating genomic DNA. RNA samples were subjected to real-time PCR (QRT-PCR) analysis using Applied-Bioscience's RT kit and predesigned Taqman probes (Invitrogen), as described previously (Lan et al EMBO J 2003). Data were normalized by Actin B (Actb) mRNA levels in each sample, and are presented as mean±SEM of 3-5 samples.

[2] = tested on: HepG2 cells; assay: Cell viability (CellTiter96 AQueous One) in HepG2 cells; format: cell-based, human; conditions: all tested doses, 48 hr
Procedure: (§1) After the above treatments, 50 μl of culture media were collected, and subjected to glucose analysis using Molecular Probes Amplex Red glucose assay kit (Cat #A22189) according to the manufacturer's protocol. Cell numbers or viability in the culture plate after the above compound treatments were determined using Promega's CellTiter96® AQueous One Solution Cell Proliferation Assay kits, according to the manufacturer's protocol and instructions. In brief, after removing 50 μl of culture media for glucose assay, cells were incubated with AQueous One solution (25 μl stock solution and 50 μl prewarmed PBS/per well) at 37° C. for 1 hour, and the absorbance of OD490 nm in each sample was determined by the Bio-Tek microplate reader. Cell viability in culture wells were determined by the subtraction of OD490 nm in cultured cells with the OD490 nm in plain culture media (without seeding of cells). Glucose production in the culture cells were obtained by normalizing the glucose concentration in culture media by cell viability in each well. At least 3 samples per each treatment were examined for the above analysis. Data are presented as Mean±SEM of those samples. Experiments were repeated at least twice.

[3] = tested on: PDK1/AKT/FOXO1; assay: Western blot of PDK1/AKT/FOXO1 in serum-starved HepG2 cells; format: cell-based, human
Procedure: HepG2 cells were seeded on 6-well plates (7×10^5 cells/well) and cultured in 10% FBS EMEM media for 30 hr. Then these cells were washed twice with PBS to remove residual sera, and serum-starved in plain EMEM media overnight. […]
After the above described treatments, cultured HepG2 and AML-12 cells were rinsed twice with ice-cold PBS and lysed in ice-cold RIPA buffer containing complete proteinase and phosphatase inhibitors (Thermo-Fisher Scientific, Waltham, Mass.) on ice for 30 min. Cell lysates were collected using a cell scraper and transfer pipette, and then centrifuged at 12000×g for 30 min at 4° C. to remove the DNA pellet and obtain the protein extract. Protein levels in the supernatant of these cell lysates were determined using the Pierce Micro-BCA protein assay kit (Thermo Scientific-Piece Biotechnology, Rockford, Ill.) according to the manufacturer's protocol.
One hundred micrograms of liver tissue proteins or five micrograms of total proteins from control- and compound(s)-treated HepG2 or AML-12 cells were subjected to SDS-PAGE gel separation and then transferred to PVDF membranes, as described previously (Reddy et al. 2008 Science). Membranes were blocked in a phosphate-buffered saline (PBS) containing 5% (w/v) of bovine serum albumin (Sigma, St. Louis, Mo.) and incubated with specific primary antibodies followed by the incubation with HRP-conjugated anti-mouse or anti-rabbit secondary antibodies (1:5000 dilution, Cell Signaling Inc.). All primary antibodies except Gapdh (Li-COR, Lincoln, Nebr.) were purchased from Cell Signaling Inc. Positive signals on the membrane blots were detected using the Amersham's enhanced chemiluminescence Western Blotting Prime Detection reagents (GE Healthcare Lifescience, Pittsburgh, Pa.). Images of these luminescence signals on the membrane blots were captured using the LI-COR Odyssey Fc Image system (Lincoln, Nebr.). The same membrane blot was stripped and re-blotted with another antibody as described in the GE WB ECL-prime-detection protocol (GE healthcare Lifescience, Pittsburgh, Pa.). Protein band densities in the Western blots were determined using the NIH ImageJ software and then normalized by Gapdh or Actb/ACTB level in each sample. Data are presented as mean±SEM of three samples per each group.

[4] = tested on: STZ-induced T1D mice; assay: Blood glucose in STZ-induced type 1 diabetic mice after acute treatment; format: in vivo, mouse; conditions: 5.4 mg/kg ip, fasted
Procedure: Five-week-old C57/BL6 male mice were intraperitoneally injected with streptozotocin (STZ, 55 mg/kg mouse body weigh) daily for 5 days, and then housed in the vivarium for another 14 days for recovery. Blood glucose levels of these mice were measured using a glucometer. Those animals with a blood glucose level higher than 500 mg/dL were considered to be type I diabetic (T1D). These T1D mice with unfasted blood glucose levels between 500-550 mg/dL were fasted overnight and injected intraperitoneally with Compound #43 at a dose of 5.4 mg/kg body weight or physiological saline containing 2% DMSO (Compound #43 stock solvent). At 1, 2 and 3 hours post-injection, blood glucose levels in these mice were measured using the glucometer.

[5] = tested on: H4IIE cells; assay: Glucose production assay in H4IIE cells; format: cell-based, rat
Procedure: Equal numbers of Human HepG2 or rat H4IIE cells (1-1.5×10^5 cells/well) were seeded on 96 well plates in 10% FBS-containing media for 24 hr. Cells were then washed twice with PBS, and treated with various concentrations of compounds, metformin or insulin in 100 μl of glucose production media (glucose-free, phenol red-free DMEM media supplemented with 20 mM sodium lactate, 2 mM sodium pyruvate and 5 mM HEPES) at 37° C. for 24 hr (H4IIE cells only) or 48 hr (HepG2 cell only). Cells were also incubated with 0.24% DMSO (the maximal volume of DMSO solvent used in the experiments).
as §1
The half maximal inhibitory concentration (IC50 values) of Compound #43 or metformin for the inhibition of glucose production were determined using the ED50 Plus v1.0 online software.

Compound: C[Se]C[C@H]1O[C@@H](n2cnc3c(N)ncnc32)C(OC(C)=O)C1OC(C)=O (some centres unmarked) [Compound #43, Adenosine, 5′-Se-methyl-5′-selino-, 2′,3′-diacetate]
- reduction of G6pc mRNA levels in the liver vs saline [1]: about 56%
- cell viability [2]: no significant decrease of cell viability
- time of peak increase of pPDK1 ([3]; 600 ppb): 60-90 minutes
- phosphorylated AKT at T308 ([3]; 600 ppb, 30, 60, 90 minutes and 24 hr (FIG. 13C)): significant and transient increase of phosphorylated AKT at T308
- phosphorylated FOXO1 at T24 ([3]; 600 ppb, 90 minutes and longer (FIG. 13E)): significantly increased
- total AKT protein levels ([3]; 600 ppb, all tested time points): not significantly altered
- total Foxo1 protein levels ([3]; 600 ppb, less than 24 hours): no significant change in total FOXO1 protein levels
- total Foxo1 protein levels ([3]; 600 ppb, prolonged treatment 30 hr or 48 hr): slight but statistically significant decrease of total FOXO1 proteins
- pPDK1 protein level ([3]; 600 ppb, serum-free, 30, 60, 90 minutes (FIG. 13B)): significant and transient increase of pPDK1
- blood glucose levels ([4]; 2 and 3 hours (FIG. 28)): significant decrease in blood glucose levels
- blood glucose levels ([4]; 1 hour (FIG. 28)): trend of decreased blood glucose levels
- IC50 ([5]; Rattus norvegicus, H4IIE, 24 h, read-out: IC50 (inhibition of glucose production)): 17.8 µM
- potency relative to metformin in inhibition of glucose production ([5]; cultured rat liver cells): at least 15 times
- effect on glucose production in H4IIE cells ([5]; serum-free, 24 hr (FIG. 2)): dose-dependent decrease in glucose production
